In brackets after ≈: the same amount, converted by molar mass. Read-outs that look alike come from different tables or passages of the source.
Legend:
[1] = Reported physicochemical properties of valproic acid; conditions: based on reported absorption and solubility values
[2] = cited from earlier work
[3] = according to Sigma-Aldrich; cited from earlier work
[4] = 70 kg person, Gugler and Unruh 1980
[5] = systemic disposition PK of the reported 250 mg single dose study

For `CCCC(CCC)C(=O)O` [VPA, Valproic acid], the “biopharmaceutical classification system (BCS) class” value [1] is given as “class I”, the CL [2, 4] is given as 0.61 L/h and the F [2, 4] is given as 100%. For the same compound, the Vd [2, 4] was 10.6 L, the “rate of absorption of released drug, first order (kabs)” value ([2]; based on data of Dutta and Reed 2007) was 61 h⁻¹ and the “time up to which intestinal absorption was measured by deconvolution” value ([2]; oral, Dutta and Zhang, 2004) was “up to 22 hr”. The “bioavailability (F)” value ([2]; oral, immediate release, modified release and extended release formulations) was ~100%, the CL [2, 5] was 0.52 L/h and the V [2, 5] was 7.1 L. The solubility in water [3] was 50 mg/mL (≈ 347 mM).
